Earlier results as cited in patent publication US9670196B2, “Thiazole-substituted aminoheteroaryls as Spleen Tyrosine Kinase inhibitors” (Merck Sharp & Dohme Corp., priority 2013, dated 2017).

Key:
[1] = dosed intranasally, phase I/II study, allergic rhinitis; cited from earlier work
[2] = phase II clinical trial for allergic rhinitis; cited from earlier work

In the case of `Oc1cccc(Nc2ncc(F)c(Nc3cccc(O)c3)n2)c1` [Example R112], the PGD2 [1] is given as “statistically significant decrease”, the clinical safety [1] is given as “safe across a range of indicators” and the efficacy versus placebo [2] is given as “lack of efficacy versus placebo”.
